Laboratory results reported in the supplement of paper PMC10307832.

Assays:
Assay in all cases: relative viability (nuclei count vs DMSO), 5 days (fraction); higher = more cells survive
Selisistat + OSI-027 = compound: C1CC(C2=C(C1)C3=C(N2)C=CC(=C3)Cl)C(=O)N [Selisistat] + COc1cccc2cc(-c3nc([C@H]4CC[C@H](C(=O)O)CC4)n4ncnc(N)c34)[nH]c12 [OSI-027] (partner 0.5 µM)
Method in brief: (§1)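 The day after seeding in 1536-well plates, lung cancer cell lines were treated by pin tool with a single drug, or with a fixed anchor-drug dose together with five library-drug doses (not always all listed) in √10 steps. After 5 days, a combined fix-and-stain solution (final 0.05% Triton X-100, 1% formaldehyde, 1 ug/ml Hoechst) was added. Nuclei counted on 4× images gave relative viability as treated counts over vehicle counts, reported as the median of duplicate plates.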

Selisistat + Vorinostat = compound: C1CC(C2=C(C1)C3=C(N2)C=CC(=C3)Cl)C(=O)N [Selisistat] + O=C(CCCCCCC(=O)Nc1ccccc1)NO [Vorinostat] (partner 1 µM)
Method in brief: as §1

Selisistat + Lapatinib = compound: C1CC(C2=C(C1)C3=C(N2)C=CC(=C3)Cl)C(=O)N [Selisistat] + CS(=O)(=O)CCNCc1ccc(-c2ccc3ncnc(Nc4ccc(OCc5cccc(F)c5)c(Cl)c4)c3c2)o1 [Lapatinib] (partner 2 µM)
Method in brief: as §1

Selisistat + Pemetrexed = compound: C1CC(C2=C(C1)C3=C(N2)C=CC(=C3)Cl)C(=O)N [Selisistat] + Nc1nc2[nH]cc(CCc3ccc(C(=O)N[C@@H](CCC(=O)O)C(=O)O)cc3)c2c(=O)[nH]1 [Pemetrexed] (partner 0.2 µM)
Method in brief: as §1

UMC-11
relative viability (Selisistat + OSI-027; first compound 0.4 µM): 0.498
relative viability (Selisistat + OSI-027; first compound 1.265 µM): 0.398
relative viability (Selisistat + OSI-027; first compound 4 µM): 0.385
relative viability (Selisistat + OSI-027; first compound 12.65 µM): 0.476
relative viability (Selisistat + OSI-027; first compound 40 µM): 0.46
relative viability (Selisistat + Vorinostat; first compound 0.4 µM): 0.456
relative viability (Selisistat + Vorinostat; first compound 1.265 µM): 0.477
relative viability (Selisistat + Vorinostat; first compound 4 µM): 0.531
relative viability (Selisistat + Vorinostat; first compound 12.65 µM): 0.504
relative viability (Selisistat + Vorinostat; first compound 40 µM): 0.593
relative viability (Selisistat + Lapatinib; first compound 0.4 µM): 0.921
relative viability (Selisistat + Lapatinib; first compound 1.265 µM): 0.999
relative viability (Selisistat + Lapatinib; first compound 4 µM): 0.893
relative viability (Selisistat + Lapatinib; first compound 12.65 µM): 0.94
relative viability (Selisistat + Lapatinib; first compound 40 µM): 1.06
relative viability (Selisistat + Pemetrexed; first compound 0.4 µM): 0.767
relative viability (Selisistat + Pemetrexed; first compound 1.265 µM): 0.749
relative viability (Selisistat + Pemetrexed; first compound 4 µM): 0.844
relative viability (Selisistat + Pemetrexed; first compound 12.65 µM): 0.754
relative viability (Selisistat + Pemetrexed; first compound 40 µM): 0.759
